Experiments:
[1] = test system: alcohol-induced hepatotoxicity in mice; assay: Alcohol (ethanol)-induced hepatotoxicity in mice, biochemical and physical parameters (Example III); type: in vivo, Swiss Albino mice; settings: for Relative organ weight (w.r.t body weight) Kidney / Relative organ weight (w.r.t body weight) Liver / ACP / ALP / ALT(SGPT) / AST(SGOT) / Total Protein: 10 mg/kg p.o. + alcohol 5 g/kg p.o. twice daily, mean ± SD; for ACP / ALP / ALT(SGPT) / AST(SGOT) / Total Protein: plasma
Method: Swiss Albino male and female mice weighing approximately 30±5 g, 2 month old mice were obtained from National Research Institute of Ayurveda for Drug Development (Govt. of India), Kolkata, and were housed in polypropylene cages at 22±3° C., relative air humidity of 45 to 55%, with 12.00 hr light & dark cycle (lighting on from 6:00 AM to 6:00 PM). Mice were provided a standard pellet chow diet (carbohydrate 65.5%, protein 17.6%, fat 6.6%) and distilled water ad libitum. The mice were acclimatized for one week in the laboratory conditions, before being used in the experiment. All experiments were conducted between 10.00 hr and 14.00 hr. Principles of laboratory animals care (NIH publication no. 85-23, revised 1985) were followed.
In the present study simultaneous administration of alcohol (ethanol) and treatment with 3-OH-DBP and 3,8-(OH)2-DBP was done.
Vehicle control animals (“Con Veh”) were administered 0.3% CMC orally for 15 days.
Animals receiving ethanol (“Alc+0.3 CMC”, “3-OH-DBP+Alc”, “3,8-(OH)2-DBP+Alc”) were administered ethanol in 0.3% CMC orally as discussed above.
Results were expressed in terms of mean±SD (n=8). The data were subjected to one way ANOVA followed by Tukey's test using GraphPad Prism 4.0 software to establish statistical significance (*p<0.05, **p<0.01, ***p<0.001 vs. vehicle control; # p<0.05, ## p<0.01, ### p<0.001 vs. animals administered ethanol only).

[2] = test system: CCl4-induced hepatotoxicity in mice; assay: Synergistic hepatoprotective activity of DBPs against CCl4-induced hepatotoxicity (Example IV); settings: for ACP / ALP / ALT / AST / Total Protein: CCl4 1 ml/kg, mean ± SEM, n=4
[3] = test system: alcohol-induced hepatotoxicity in mice; assay: Synergistic hepatoprotective activity of DBPs against alcohol-induced hepatotoxicity (Example IV); settings: for ACP / ALP / ALT / AST / Total Protein: alcohol 5 g/kg, mean ± SEM, n=4
Method: Hepatotoxicity was induced by oral administration of alcohol (ethanol: 5 g/kg) from stock 400 mg/ml twice daily for 15 days.
3-OH-DBP and 3,8-(OH)2-DBP were each separately suspended in 0.3% CMC and administered at a dose of 10 mg/kg body weight per orally for 15 days. During the 15 days treatment, body weight, food intake, and water intake were monitored at regular intervals. Following 15 days of treatment physical parameters (relative organ weight) and biochemical parameters (plasma total protein content, ALT, AST, ALP, and ACP) were studied.
3-OH-DBP (2 mg/kg body weight, 10 mg/kg body weight);
3,8-(OH)2-DBP (10 mg/kg body weight, 50 mg/kg body weight); and

[4] = female mice (Table 14), 10 mg/kg p.o.
[5] = male mice (Table 13), 10 mg/kg p.o.
[6] = female mice, doses 3-OH-DBP 2, 3,8-(OH)2-DBP 10, 1:5 combination 12 mg/kg b.w.
[7] = female mice, doses 3-OH-DBP 10, 3,8-(OH)2-DBP 50, 1:5 combination 60 mg/kg b.w.
[8] = male mice, doses 3-OH-DBP 2, 3,8-(OH)2-DBP 10, 1:5 combination 12 mg/kg b.w.
[9] = male mice, doses 3-OH-DBP 10, 3,8-(OH)2-DBP 50, 1:5 combination 60 mg/kg b.w.
[10] = female mice, doses 3-OH-DBP 2, 3,8-(OH)2-DBP 10, combination 12 mg/kg b.w.

O=c1oc2cc(O)ccc2c2ccc(O)cc12 [3,8-(OH)2-DBP, 3,8-dihydroxy-dibenzo-alpha-pyrone]
hepatoprotective activity against alcohol-induced hepatotoxicity ([1]; 10 mg/kg p.o., 15 days): significant hepatoprotective activity | effect on alcohol-induced increased plasma ACP [1, 4]: significantly (p<0.05) attenuated | effect on alcohol-induced increased plasma ALT [1, 4]: significantly (p<0.001) attenuated | effect on alcohol-induced increased plasma AST [1, 4]: significantly (p<0.05; p<0.01) attenuated | effect on plasma ALP level compared with ALC group [1, 4]: did not show significant (p>0.05) change | Relative organ weight (w.r.t body weight) Kidney ([1]; female mice, 15 days): 0.012 ± 0.001 | Relative organ weight (w.r.t body weight) Liver ([1]; female mice, 15 days): 0.048 ± 0.001 | ACP ([1]; female mice, 15 days): 4.31 ± 2.84^## IU/L | ALP ([1]; female mice, 15 days): 43.12 ± 5.84 IU/L | ALT(SGPT) ([1]; female mice, 15 days): 6.72 ± 0.727^## IU/L | AST(SGOT) ([1]; female mice, 15 days): 3.62 ± 1.27^## IU/L | Total Protein ([1]; female mice, 15 days): 3.229 ± 0.187 g/dL | effect on alcohol-induced increased plasma ACP [1, 5]: significantly (p<0.05) attenuated | effect on alcohol-induced increased plasma ALT [1, 5]: significantly (p<0.05) attenuated | effect on alcohol-induced increased plasma AST [1, 5]: significantly (p<0.05) attenuated | Relative organ weight (w.r.t body weight) Kidney ([1]; male mice, 15 days): 0.016 ± 0.002 | Relative organ weight (w.r.t body weight) Liver ([1]; male mice, 15 days): 0.044 ± 0.005 | ACP ([1]; male mice, 15 days): 4.29 ± 1.22^## IU/L | ALP ([1]; male mice, 15 days): 27.39 ± 6.15 ^ IU/L | ALT(SGPT) ([1]; male mice, 15 days): 9.98 ± 3.44^# IU/L | AST(SGOT) ([1]; male mice, 15 days): 4.51 ± 1.80^# IU/L | Total Protein ([1]; male mice, 15 days): 3.229 ± 0.187^ g/dl | hepatoprotective activity (conclusion, Tables 19 and 20) ([2]; CCl4-induced hepatotoxicity, male and female mice): hepatoprotective activity in a dose dependent manner | ACP [2, 6]: 48 ± 4 (c) U/L | ALP [2, 6]: 89 ± 5.1 (c) IU/L | ALT [2, 6]: 68 ± 6.5 (c) IU/L | AST [2, 6]: 57 ± 8 (c) ^ IU/L | Total Protein [2, 6]: 4.9 ± 0.21 g/dL | ACP [2, 7]: 28 ± 5.1 (f) U/L | ALP [2, 7]: 68 ± 8 (f) ^ IU/L | ALT [2, 7]: 62 ± 3.6 (f) IU/L | AST [2, 7]: 41 ± 14^###(f) IU/L | Total Protein [2, 7]: 6.6 ± 0.16 g/dL | ACP, difference in values from CCl4 treated mice [2, 6]: B = (a-c = 32) U/L | ALP, difference in values from CCl4 treated mice [2, 6]: B = (a-c = 1) IU/L | ALT, difference in values from CCl4 treated mice [2, 6]: B = (a-c = 19) IU/L | AST, difference in values from CCl4 treated mice [2, 6]: B = (a-c = 48) IU/L | ACP, difference in values from CCl4 treated mice [2, 7]: E = (a-f = 52) U/L | ALP, difference in values from CCl4 treated mice [2, 7]: E = (a-f = 22) IU/L | ALT, difference in values from CCl4 treated mice [2, 7]: E = (a-f = 25) IU/L | AST, difference in values from CCl4 treated mice [2, 7]: E = (a-f = 64) IU/L | ACP [2, 8]: 48 ± 7.2***,#(c) U/L | ALP [2, 8]: 89 ± 5.1*,,#(c) IU/L | ALT [2, 8]: 68 ± 5.1 (c) IU/L | AST [2, 8]: 70 ± 4.4##(c) IU/L | Total Protein [2, 8]: 6.3 ± 0.36 g/dL | ACP [2, 9]: 46 ± 2.5 (f)^ U/L | ALP [2, 9]: 68 ± 8##(f) ^ IU/L | ALT [2, 9]: 60 ± 2.5 (f) IU/L | AST [2, 9]: 58 ± 1.9###(f)^ IU/L | Total Protein [2, 9]: 6 ± 0.40 g/dL | Relative liver weight ([2]; male mice, CCl4 study of Example IV): significantly increased | ACP, difference in values from CCl4 treated mice [2, 8]: B = (a-c = 38) U/L | ALP, difference in values from CCl4 treated mice [2, 8]: B = (a-c = 53) IU/L | ALT, difference in values from CCl4 treated mice [2, 8]: B = (a-c = 12) IU/L | AST, difference in values from CCl4 treated mice [2, 8]: B = (a-c = 33) IU/L | ACP, difference in values from CCl4 treated mice [2, 9]: E = (a-f = 20) U/L | ALP, difference in values from CCl4 treated mice [2, 9]: E = (a-f = 74) IU/L | ALT, difference in values from CCl4 treated mice [2, 9]: E = (a-f = 20) IU/L | AST, difference in values from CCl4 treated mice [2, 9]: E = (a-f = 45) IU/L | hepatoprotective activity (conclusion, Tables 17 and 18) ([3]; alcohol-induced hepatotoxicity, male and female mice): hepatoprotective activity in a dose dependent manner | ACP [3, 10]: 15.6 ± 0.99 U/L | ALP [3, 10]: 84 ± 6.5 (c) IU/L | ALT [3, 10]: 45.80 ± 5.76 (c)^ IU/L | AST [3, 10]: 64.09 ± 7.34 (c)^ IU/L | Total Protein [3, 10]: 6.53 ± 0.10 g/dL | Relative liver weight ([3]; female mice, alcohol study of Example IV): significantly decreased | ACP, difference in values from alcohol treated mice [3, 10]: (c) B = (a-c = 5.67) U/L | ALP, difference in values from alcohol treated mice [3, 10]: B = (a-c = 55.35) IU/L | ALT, difference in values from alcohol treated mice [3, 10]: B = (a-c = 43.04) IU/L | AST, difference in values from alcohol treated mice [3, 10]: B = (a-c = 4.9) IU/L | ACP [3, 8]: 11.2 ± 1.44 (c) U/L | ALP [3, 8]: 88.1 ± 15.8 (c) IU/L | ALT [3, 8]: 53.9 ± 3.99 (c) IU/L | AST [3, 8]: 25.6 ± 3.10 (c) IU/L | Total Protein [3, 8]: 7.65 ± 0.34 g/dL | ACP [3, 9]: 9.19 ± 0.71 (f)^ U/L | ALP [3, 9]: 78 ± 7.21 (f) IU/L | ALT [3, 9]: 64.3 ± 2(f) ^ IU/L | AST [3, 9]: 24.8 ± 2.19 (f) IU/L | Total Protein [3, 9]: 8.60 ± 0.35 g/dL | ACP, difference in values from alcohol treated mice [3, 8]: B = (a-c = 7.4) U/L | ALP, difference in values from alcohol treated mice [3, 8]: B = (a-c = 45.9) IU/L | ALT, difference in values from alcohol treated mice [3, 8]: B = (a-c = 52.1) IU/L | AST, difference in values from alcohol treated mice [3, 8]: B = (a-c = 35.1) IU/L | ACP, difference in values from alcohol treated mice [3, 9]: E = (a-f = 9.41) U/L | ALP, difference in values from alcohol treated mice [3, 9]: E = (a-f = 56) IU/L | ALT, difference in values from alcohol treated mice [3, 9]: E = (a-f = 41.7) IU/L | AST, difference in values from alcohol treated mice [3, 9]: E = (a-f = 35.9) IU/L
